Experimental data as given in patent publication US20170115265A1, “Use of Visibly Detectable Compounds as Performance Reference Compounds in Passive Sampling Devices” (Geosyntec Consultants, Inc., priority 2015, published 2017).
Where two headings read alike, the source gives them in different places.

Tests used:
[1] = cited from earlier work; for Log KOW value (may be estimate): common dyes, Table 1, values said to be known; for Log KOW value: drugs, reported by Scheytt et al. 2005; for Log KOW: source not stated
[2] = Example 1: elimination of PRCs from PE passive sampling devices deployed 14 days in marine aquatic sediment; assay type: physicochemical; details: PE PSD at Station 6, marine sediment
Text: Twenty PSDs were created (each consisting of a 4×10 cm piece of PE). Ten of the PSDs were spiked with PCB-36 (which is not visibly detectable) and ten of the PSDs were spiked with Sudan III, a visibly detectable PRC within the scope of the present disclosure. The 20 spiked PSDs then were inserted in the top 10 cm of aquatic sediment at a marine (ocean) site by scuba divers at ten locations within a half-acre area. At each of the 10 locations, one PSD containing PCB-36 and one PSD containing Sudan III were deployed.
After 14 days, the PSDs were collected by divers, brought to the surface, placed in a shipping container, and sent to a laboratory, where they were wiped with moistened tissues, placed in small vials, and extracted with solvent. […] The 13 solvents (from extraction of 10 exposed PSDs and 3 trip blanks PSDs) into which the PCB-36-spiked PSDs were extracted were then measured for PCBs using high-resolution gas chromatography/high-resolution mass spectrometry with an approximate 30- to 60-minute analysis time per sample. Via this analysis, the concentrations of PCB-36 in the 13 PCB-36-spiked PSDs were determined. […] Via this analysis, the concentration of Sudan III in the 13 Sudan III-spiked PSDs was determined. […]

[3] = Example 2: hypothetical 28-day sediment deployment of PE PSD spiked with three dye PRCs; assay type: physicochemical; details: for Log10-transformed ke (hypothetical) / ke (hypothetical): PE PSD 28 days in sediment
Text: Two PSD could be created (each consisting of a 4×10 cm piece of PE).
The KPE values of the 3 dyes are dissimilar to that of PCB-60, yet they may be used to provide a ke for PCB-60 according to the following approach. One PSD containing the three above dyes would be deployed into sediment for a period of 28 days, and the other PSD containing the three above dyes would be held in storage. Following retrieval of the PSD deployed in the sediment, both PSDs would be extracted in solvent (e.g., 50-mL mixture of hexane and methylene chloride). […] Concentrations of these dyes in the PE could be calculated assuming a known mass of each PE piece. The solvent extract of the PSD that had been exposed to the sediment for 28 days would be measured for PCBs using high-resolution gas chromatography/high-resolution mass spectrometry with an approximate 30- to 60-minute analysis time per sample. Via this analysis, the concentration of PCB-60 in the PSD that had been exposed to the sediment for 28 days could be determined.
(§1) A linear regression model would then be estimated using the Log10 ke values as the dependent variable (y axis) and the Log10 KPE values as the independent variable […].
FIG. 2 is a line graph showing this equation plotted as Log10 Ke (day-1) versus Log10 KPE (liters/kg/PE). […] By using the equation from the plot shown in FIG. 2, the predicted ke value of PCB-60 could be interpolated from its known KPE value.

[4] = polyethylene-water partition coefficient (KPE) of PCBs according to Smedes et al.; assay type: physicochemical; details: Log10 of the cited KPE
Text: Assuming the KPE values are roughly similar (i.e., within 10%) between the dye and the analyte of interest, the dye could also be an appropriate PRC to use for other compounds. For example, given that KPE Sudan III KPE is 390,000 L/kg, Sudan III could be used as a PRC for compounds with KPE values from 350,000 L/kg to 430,000 L/kg.

[5] = Example 7: elimination of dye PRCs from PE PSDs in jars of sediment and water agitated 14 days on a shaker table; assay type: physicochemical; details: PE PSD
Text: Two additional 3×3 cm PSDs were spiked with 10 unlabeled PCB PRCs that are not visibly detectable, but are routinely used as PRCs in passive sampling applications.
The five jars containing the PSDs were closed and agitated for a period of 14 days on a shaker table. The other four dye-spiked PSDs and PCB-spiked PSD were held in storage. Following retrieval of the PSDs deployed in the sediment after 14 days, the PSDs were extracted in solvent (e.g., 50-mL mixture of hexane and methylene chloride). […] Concentrations of these dyes in the PE could be calculated assuming a known mass of each PE piece. The solvent extracts of the PSDs that had been exposed to the sediment for 14 days and held in storage for 14 days would be measured for PCBs using high-resolution gas chromatography/high-resolution mass spectrometry with an approximate 30- to 60-minute analysis time per sample.
as §1

[6] = Example 8: Sudan III elimination from PE PSDs, marine sediment versus agitated sediment, 14 days; assay type: physicochemical
Description: Six 3×3 cm PSDs and fourteen 4×10 cm PSDs were spiked with Sudan III dye. Eleven of the larger (4×10 cm) PSDs were inserted in the top 10 cm of aquatic sediment at a marine (ocean) site by scuba divers at ten locations within a half-acre area. Three of the smaller (3×3 cm) PSDs were deployed into […] 8-oz jars containing approximately 100 g (wet weight) sediment and 150 mL water. The three jars containing the PSDs were closed and agitated for a period of 14 days on a shaker table. […] The solvents from the PSDs were analyzed on a benchtop UV/Vis spectrophotometer at wavelengths of 465 nm (to indicate the concentration of Sudan III in the solvent). Concentrations of these dyes in the PE could be calculated assuming a known mass of each PE piece.
Using the average concentrations of Sudan III in the unexposed PSDs (to represent the t=0 concentration) and the concentration of Sudan III in the PSDs that had been exposed to the marine sediment and agitated sediment for 14 days (the time t concentrations), one could estimate the ke values using the equation provided in Example 1. […] Thus, the dye approach can be used to quantify the increase in sampling rates for various methods (i.e., unagitated deployments, various types of agitated deployments), and provides a low cost and efficient method compared to other PRCs.

COc1ccc(OC)c(N=Nc2c(O)ccc3ccccc23)c1 [Citrus Red 2]
Log KOW value (may be estimate) [1]: 5.67

CC(C)(Oc1ccc(Cl)cc1)C(=O)O [Clofibric acid]
Log KOW value [1]: 2.88

O=C(O)Cc1ccccc1Nc1c(Cl)cccc1Cl [Diclofenac]
Log KOW value [1]: 1.9

CC(C)Cc1ccc(C(C)C(=O)O)cc1 (centres unmarked) [Ibuprofen]
Log KOW value [1]: 2.48

O=C1/C(=C2\Nc3ccccc3C2=O)Nc2ccccc21 [Indigo dye]
Log KOW value (may be estimate) [1]: 3.7

Clc1cccc(-c2cc(Cl)cc(Cl)c2)c1 [PCB-36]
elimination rate ke [2]: 0.043 day⁻¹

Clc1ccc(-c2ccc(Cl)c(Cl)c2Cl)cc1 [PCB-60]
estimated hypothetical ke interpolated from KPE ([3]; from regression of FIG. 2): 0.028 day⁻¹ | Log10 KPE [4]: 5.9 L/kg PE

Cc1c(C(C)C)c(=O)n(-c2ccccc2)n1C [Propyphenazone]
Log KOW value [1]: 2.02

CCN(CC)c1ccc2c(-c3ccccc3C(=O)O)c3ccc(=[N+](CC)CC)cc-3oc2c1.[Cl-] [Rhodamine B]
Log KOW ([1]; dye compounds of Table 2): 1.8

Cc1ccc(Nc2ccc(O)c3c2C(=O)c2ccccc2C3=O)cc1 [Solvent Violet 13]
Log10-transformed ke (hypothetical) [3]: -1.7 day^−1 | ke (hypothetical) [3]: 0.02 day⁻¹ | Log KOW ([1]; dye compounds of Table 2): 6.2 | Log KOW ([1]; dye compounds of Table 4): 6.2 | ke [5]: 0.16 day⁻¹

CC1(C)Nc2cccc3c(N=Nc4ccc(N=Nc5ccccc5)c5ccccc45)ccc(c23)N1 [Sudan Black B]
Log KOW ([1]; dye compounds of Table 4): 8.8 | Log10-transformed ke [5]: -3.1 log10(day^−1) | ke [5]: 0.00072 day⁻¹

Oc1ccc2ccccc2c1N=Nc1ccc(N=Nc2ccccc2)cc1 [Sudan III]
Log10-transformed ke (hypothetical) [3]: −1.4 day^−1 | ke (hypothetical) [3]: 0.04 day⁻¹ | Log KOW ([1]; dye compounds of Table 2): 5.7 | Log KOW ([1]; dye compounds of Table 4): 5.7 | ke [5]: 0.046 day⁻¹ | elimination rate ke [2]: 0.032 day⁻¹ | average ke ([6]; agitated sediment (shaker table)): 0.094 day⁻¹ | average ke ([6]; marine sediment (unagitated)): 0.030 day⁻¹

Oc1ccc2ccccc2c1N=Nc1ccccc1 [Sudan I]
Log KOW ([1]; dye compounds of Table 2): 5.5

Oc1ccc(N=Nc2ccccc2)c(O)c1 [Sudan Orange G]
Log10-transformed ke (hypothetical) [3]: −0.1 day^−1 | ke (hypothetical) [3]: 0.8 day⁻¹ | Log KOW ([1]; dye compounds of Table 2): 3.9 | Log KOW ([1]; dye compounds of Table 4): 3.9 | ke [5]: 0.41 day⁻¹
